Paper PMC8355244, “A fragment-based approach identifies an allosteric pocket that impacts malate dehydrogenase activity” (Communications Biology, 2021)
Several values for one entry are separate records, joined by “and”; a condition that tells them apart may be missing. Identical values can stand only once. Like-named read-outs stand apart in the source and are kept apart here.

Key:
[1] = target: T1, WT PfMDH (Plasmodium falciparum, UniProt Q6VVP7); assay: Microscale thermophoresis (MST) binding to fluorescently labeled PfMDH
T1 construct: The full-length WT PfMDH gene was cloned into pETM-13; made in house; host or cells: E. coli Rosetta 2 (DE3) pLysS
T1 sequence (Q6VVP7 entry or part of it): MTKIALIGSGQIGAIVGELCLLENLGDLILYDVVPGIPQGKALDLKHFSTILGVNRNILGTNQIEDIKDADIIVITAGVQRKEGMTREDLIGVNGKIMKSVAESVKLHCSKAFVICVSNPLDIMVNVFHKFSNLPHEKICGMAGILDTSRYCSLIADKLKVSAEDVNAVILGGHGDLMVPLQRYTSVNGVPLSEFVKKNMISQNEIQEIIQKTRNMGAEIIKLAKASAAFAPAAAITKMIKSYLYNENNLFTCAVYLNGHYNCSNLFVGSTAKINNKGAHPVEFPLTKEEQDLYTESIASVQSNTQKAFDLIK
Protocol: A Nanotemper MonolithNT.115 instrument (Nano-temper Technologies, GmbH) was used to quantify ligand/protein interactions. Purified PfMDH was labeled using the Red-NHS Monolith Protein Labeling Kit according to the manufacturer’s protocol. All reactions were performed in 100 mM Na-phosphate buffer pH 7.4, 400 mM NaCl, 0.05% Tween-20 in standard capillaries (Nanotemper Technologies GmbH). The ligand was 2× fold diluted starting from 4 mM as the highest concentration; the final protein concentration was 50 nM. All samples were incubated with compounds for about 1 h at room temperature followed by centrifugation at 18,000 rpm (Eppendorf Centrifuge 5415R) before loading into capillaries. Measurement was performed in triplicate at 40% LED intensity and 40% MST power. The Kd model was employed to determine the binding constant using the software MO.Affinity Analysis v2.3 while data collection was performed with MO.Control 2 (Nano-temper Technologies, GmbH).

[2] = target: T2, PfMDH (Plasmodium falciparum, UniProt Q6VVP7); assay: Thermal shift assay (TSA); type: binding; conditions: for TSA melting curve raw signal: triplicate columns; for TSA melting curve raw fluorescence signal: three replicate columns
T2 construct: The full-length WT PfMDH gene was cloned into pETM-13; made in house; host or cells: E. coli Rosetta 2 (DE3) pLysS
T2 sequence (Q6VVP7 entry or part of it): as above
Protocol: The TSA experiment was conducted in a BioRad CSX 96 (Biorad). Each reaction consisted of 1 mM of compound (100 mM stock in 100% (v/v) DMSO) and 10 μM PfMDH in 100 mM Na–phosphate buffer pH 7.4, 400 mM NaCl, and 10× Sypro Orange (Invitrogen) for a total volume of 100 μl. Control experiments were performed with 1% (v/v) DMSO. Inflection points were determined using BioRad CFX96™ control software. Generally, a temperature increase of over 1 °C is interpreted as a result of the stabilization of the protein-ligand interaction. On the contrary, a negative shift is considered a destabilization caused by the fragment.

[3] = target: T3, V190W PfMDH (Plasmodium falciparum, UniProt Q6VVP7, V190W); assay: STD-NMR fragment screening, dimeric mutant; type: binding; conditions: 10 μM protein, 1 mM fragment
T3 construct: made in house; host or cells: E. coli (stated expressly only for the WT construct)
T3 sequence (Q6VVP7 whole entry V190W, the tested form may be a part): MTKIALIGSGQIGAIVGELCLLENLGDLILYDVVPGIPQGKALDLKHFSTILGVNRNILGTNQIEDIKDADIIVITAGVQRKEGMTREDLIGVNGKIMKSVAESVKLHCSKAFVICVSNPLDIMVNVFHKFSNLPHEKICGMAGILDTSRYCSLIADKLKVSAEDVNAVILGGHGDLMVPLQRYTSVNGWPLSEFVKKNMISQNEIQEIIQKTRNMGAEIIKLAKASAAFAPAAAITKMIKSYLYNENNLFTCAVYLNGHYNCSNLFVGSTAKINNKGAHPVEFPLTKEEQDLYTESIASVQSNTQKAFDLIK
Protocol: (§1) NMR spectra were acquired on Bruker Avance III (600 MHz) spectrometer at 300 K, equipped with a triple resonance cryoprobe head and an automated SampleJet sample changer. The samples for STD experiments were prepared in 100 mM Na-phosphate pH 7.4, 400 mM NaCl and spectra were recorded in water with 1:100-fold excess of the fragment (dissolved in DMSO at 100 mM) in an additional 10% (v/v) D2O to provide a lock signal. Final protein and ligand concentrations were 10 μM and 1 mM, respectively. Selective saturation of the protein resonances (on resonance spectrum) was performed by irradiating at 0.5 ppm using a series of Eburp2.1000-shaped 90 pulses (50 ms, 1 ms delay between pulses) for a total saturation time of 2.0 s. For the reference spectrum (off-resonance), the samples were irradiated at −10 ppm. On- and off-resonance scans were subtracted using phase cycling. The fragment library screening was performed by testing 300 mixtures containing five fragments each initially. Mixtures that yielded positive STD signals were selected and deconvolved, i.e., fragments that formed “active” mixtures were tested separately. Spectra were analyzed with TopSpin® software, 4.0

[4] = target: T1, WT PfMDH; assay: STD-NMR fragment screening, wild type; type: binding; conditions: 10 μM protein, 100-fold molar excess
Protocol: as §1

[5] = target: T2, PfMDH; assay: Kinetics experiment with varying L-malate, substrate inhibition model; type: biochemical
[6] = system: MDH; conditions: cited from earlier work
[7] = 3 h exposure to 5 μM; cited from earlier work

## Nc1nc(-c2ccc(F)c(F)c2)cs1 [4DT, 4-(3,4-difluorophenyl) thiazol-2-amine]
[1]; MST report, target 50 nM, 25.1°C, n 3, Kd Confidence ± 1.7444E-05, read-out: Kd (MST report)
  Kd: 99 µM
[1]; MST, 50 nM labeled WT PfMDH, ligand 240 nM to 4 mM, read-out: Kd
  Kd: 99 ± 1.7 µM
[2]; 1 mM compound vs DMSO control
  ΔTm at 1000 µM: -2 ± 0.17 °C
[2]; 1 mM compound, 10 μM PfMDH, DMSO control Tm 58
  Tm: 56 ± 0.17 °C
[2]; Temperature 25
  TSA melting curve raw signal: 3306.061 and 3342.86 and 3324.801
[2]; Temperature 28.5
  TSA melting curve raw signal: 3333.659 and 3382.548 and 3355.546
[2]; Temperature 29
  TSA melting curve raw signal: 3336.65 and 3387.196 and 3360.105
[2]; Temperature 29.5
  TSA melting curve raw signal: 3339.189 and 3391.098 and 3364.015
[2]; Temperature 30
  TSA melting curve raw signal: 3341.416 and 3393.698 and 3368
[2]; Temperature 30.5
  TSA melting curve raw signal: 3342.684 and 3395.106 and 3371.797
[2]; Temperature 31
  TSA melting curve raw signal: 3343.918 and 3395.986 and 3375.352
[2]; Temperature 31.5
  TSA melting curve raw signal: 3345.279 and 3397.252 and 3379.023
[2]; Temperature 32
  TSA melting curve raw signal: 3347.139 and 3398.82 and 3383.605
[2]; Temperature 32.5
  TSA melting curve raw signal: 3348.867 and 3401.838 and 3388.573
[2]; Temperature 33
  TSA melting curve raw signal: 3351.566 and 3406.371 and 3394.323
[2]; Temperature 33.5
  TSA melting curve raw signal: 3355.148 and 3412.286 and 3401.055
[2]; Temperature 34
  TSA melting curve raw signal: 3359.354 and 3419.075 and 3408.698
[2]; Temperature 34.5
  TSA melting curve raw signal: 3364.345 and 3426.84 and 3417.169
[2]; Temperature 35
  TSA melting curve raw signal: 3370.925 and 3434.905 and 3426.749
[2]; Temperature 35.5
  TSA melting curve raw signal: 3378.766 and 3443.449 and 3437.428
[2]; Temperature 36
  TSA melting curve raw signal: 3388.116 and 3452.416 and 3449.193
[2]; Temperature 36.5
  TSA melting curve raw signal: 3399.139 and 3461.927 and 3462.335
[2]; Temperature 37
  TSA melting curve raw signal: 3411.581 and 3472.191 and 3477.03
[2]; Temperature 37.5
  TSA melting curve raw signal: 3425.633 and 3483.607 and 3493.418
[2]; Temperature 38
  TSA melting curve raw signal: 3441.177 and 3496.044 and 3511.6
[2]; Temperature 38.5
  TSA melting curve raw signal: 3458.245 and 3509.831 and 3531.909
[2]; Temperature 39
  TSA melting curve raw signal: 3477.439 and 3525.778 and 3554.709
[2]; Temperature 39.5
  TSA melting curve raw signal: 3498.925 and 3543.752 and 3579.893
[2]; Temperature 40
  TSA melting curve raw signal: 3522.761 and 3563.858 and 3607.657
[2]; Temperature 40.5
  TSA melting curve raw signal: 3549.068 and 3586.405 and 3638.198
[2]; Temperature 41
  TSA melting curve raw signal: 3578.181 and 3611.326 and 3671.73
[2]; Temperature 41.5
  TSA melting curve raw signal: 3609.957 and 3638.555 and 3708.036
[2]; Temperature 42
  TSA melting curve raw signal: 3645.082 and 3668.877 and 3747.413
[2]; Temperature 42.5
  TSA melting curve raw signal: 3683.644 and 3702.365 and 3790.395
[2]; Temperature 43
  TSA melting curve raw signal: 3726.411 and 3739.617 and 3837.462
[2]; Temperature 43.5
  TSA melting curve raw signal: 3773.558 and 3781.332 and 3888.754
[2]; Temperature 44
  TSA melting curve raw signal: 3825.615 and 3827.686 and 3944.903
[2]; Temperature 44.5
  TSA melting curve raw signal: 3882.684
[2]; Temperature 73.5
  TSA melting curve raw fluorescence signal: 7306.372 and 7609.03 and 7435.601
[2]; Temperature 74
  TSA melting curve raw fluorescence signal: 7252.808 and 7555.848 and 7383.062
[2]; Temperature 74.5
  TSA melting curve raw fluorescence signal: 7199.861 and 7502.703 and 7330.716
[2]; Temperature 75
  TSA melting curve raw fluorescence signal: 7147.275 and 7449.479 and 7278.535
[2]; Temperature 75.5
  TSA melting curve raw fluorescence signal: 7094.934 and 7396.013 and 7226.157
[2]; Temperature 76
  TSA melting curve raw fluorescence signal: 7042.814 and 7342.543 and 7173.967
[2]; Temperature 76.5
  TSA melting curve raw fluorescence signal: 6991.326 and 7288.895 and 7121.791
[2]; Temperature 77
  TSA melting curve raw fluorescence signal: 6939.998 and 7235.077 and 7069.532
[2]; Temperature 77.5
  TSA melting curve raw fluorescence signal: 6888.609 and 7181.445 and 7017.268
[2]; Temperature 78
  TSA melting curve raw fluorescence signal: 6837.679 and 7128.499 and 6965.286
[2]; Temperature 78.5
  TSA melting curve raw fluorescence signal: 6786.806 and 7075.655 and 6913.558
[2]; Temperature 79
  TSA melting curve raw fluorescence signal: 6735.738 and 7023.249 and 6861.909
[2]; Temperature 79.5
  TSA melting curve raw fluorescence signal: 6684.496 and 6971.241 and 6810.337
[2]; Temperature 80
  TSA melting curve raw fluorescence signal: 6633.443 and 6919.222 and 6759.175
[2]; Temperature 80.5
  TSA melting curve raw fluorescence signal: 6581.916 and 6866.533 and 6708.294
[2]; Temperature 81
  TSA melting curve raw fluorescence signal: 6530.578 and 6813.96 and 6657.201
[2]; Temperature 81.5
  TSA melting curve raw fluorescence signal: 6479.57 and 6761.335 and 6606.519
[2]; Temperature 82
  TSA melting curve raw fluorescence signal: 6428.761 and 6708.745 and 6556.435
[2]; Temperature 82.5
  TSA melting curve raw fluorescence signal: 6378.066 and 6656.727 and 6506.333
[2]; Temperature 83
  TSA melting curve raw fluorescence signal: 6327.701 and 6605.378 and 6456.007
[2]; Temperature 83.5
  TSA melting curve raw fluorescence signal: 6277.373 and 6554.37 and 6405.813
[2]; Temperature 84
  TSA melting curve raw fluorescence signal: 6227.075 and 6503.782 and 6355.543
[2]; Temperature 84.5
  TSA melting curve raw fluorescence signal: 6177.058 and 6453.083 and 6304.863
[2]; Temperature 85
  TSA melting curve raw fluorescence signal: 6127.333 and 6402.172 and 6253.833
[2]; Temperature 85.5
  TSA melting curve raw fluorescence signal: 6077.95 and 6351.179 and 6202.991
[2]; Temperature 86
  TSA melting curve raw fluorescence signal: 6029.103 and 6299.937 and 6152.723
[2]; Temperature 86.5
  TSA melting curve raw fluorescence signal: 5980.562 and 6248.441 and 6102.328
[2]; Temperature 87
  TSA melting curve raw fluorescence signal: 5932.235 and 6197.461 and 6052.601
[2]; Temperature 87.5
  TSA melting curve raw fluorescence signal: 5883.708 and 6146.127 and 6003.152
[2]; Temperature 88
  TSA melting curve raw fluorescence signal: 5834.776 and 6094.257 and 5953.457
[2]; Temperature 88.5
  TSA melting curve raw fluorescence signal: 5785.039 and 6042.085 and 5903.221
[2]; Temperature 89
  TSA melting curve raw fluorescence signal: 5734.759 and 5989.63 and 5852.78
[2]; Temperature 89.5
  TSA melting curve raw fluorescence signal: 5684.264 and 5936.616 and 5801.633
[2]; Temperature 90
  TSA melting curve raw fluorescence signal: 5633.721
[3]
  STD-NMR binding: binds to dimeric V190W PfMDH
[4]
  STD-NMR binding: could not be seen to bind
[5]; in the presence of 63 μM compound, control 12.5 ± 4.2
  Ki (substrate inhibition constant of malate): 63000 ± 31800 µM
[5]; in the presence of 125 μM compound
  Ki (substrate inhibition constant of malate): 72900 ± 41900 µM

## O=C1NCc2c1c1c3ccccc3[nH]c1c1[nH]c3ccccc3c21 [staurosporine aglycone]
[6]
  IC50: 8 µM
[7]
  decrease in cell viability: 80%
